{"source": "patent US20030236237A1", "about": "“Method of treating symptoms of hormonal variation, including hot flashes, using tachykinin receptor antagonist” (priority 2000, published 2003)", "origin": "cited, not measured here", "key": {"hot flashes [1]": {"test_system": "hot flashes", "details": "low dose oral; men and women; short term study"}, "[2]": {"test_system": "neurokinin B gene expression in the hypothalamic arcuate nucleus (ArN)", "details": "ovariectomized primate treated with estrogen"}, "[3]": {"test_system": "neurokinin B gene expression in the hypothalamic arcuate nucleus (ArN)", "details": "ovariectomized rat treated with estrogen"}, "hot flash": {"test_system": "hot flash", "details": "humans"}, "hot flashes [4]": {"test_system": "hot flashes", "details": "transdermal; tamoxifen-treated women"}}, "note": "Read-outs that look alike come from different tables or passages of the source.", "data": [{"compound": "CC(=O)O[C@]1(C(C)=O)CC[C@H]2[C@@H]3C=C(C)C4=CC(=O)CC[C@]4(C)[C@H]3CC[C@@]21C", "note": "[megestrol acetate]", "values": [{"measurement": "frequency of hot flashes", "setting": "hot flashes [1]", "value": "shown to reduce the frequency of hot flashes"}]}, {"compound": "estrogen", "values": [{"measurement": "ArN changes (increased NKB gene expression)", "setting": "[2]", "value": "completely prevents"}, {"measurement": "ArN changes (increased NKB gene expression)", "setting": "[3]", "value": "completely prevents"}]}, {"compound": "substance P [substance-P]", "values": [{"measurement": "clinical hot flash after systemic injection", "setting": "hot flash", "value": "results in a clinical hot flash"}]}, {"compound": "Clc1cccc(Cl)c1N=C1NCCN1", "note": "[clonidine]", "values": [{"measurement": "frequency and severity of hot flashes", "setting": "hot flashes [4]", "value": "only a moderate effect"}]}]}
